“And” between values parts separate entries of the source, which are not always exact repeats. Equal values may be shown once.
How the values were obtained:
[1] = test system: PBMC samples from HCV patients; test: Human IFN-gamma cytotoxic T-cell (CTL) response by ELISPOT assay; assay type: cell-based; conditions: listed as 310-51b
Protocol: Human IFN-Gamma Cytotoxic T-Cell (CTL) Response by ELISPOT Assay
Briefly, at day 1, PBMC samples from HCV patients were incubated in flasks (430 000 PBMCs/cm2) for 2 h at 37° C., 5% CO2 in covering amount of culture media (RPMI 1640 Fisher Scientific; Cat No. PAAE15-039 supplemented with L-Glutamine, (MedProbe Cat. No. 13E17-605E, 10% Foetal Bovine serum (FBS), Fisher Scientific Cat. No. A15-101) and Penicillin/Streptomycin, (Fisher Acientific Cat. No. P11-010) in order to allow adherence of monocytes. Non-adherent cells were isolated, washed, and frozen in 10% V/V DMSO in FBS until further usage. Adherent cells were carefully washed with culture media, followed by incubation at 37° C. until day 3 in culture media containing 2 μg/ml final concentration of hrGM-CSF (Xiamen amoytop biotech co, cat no: 3004.9090.90) & 1 μg/ml hrIL-4 (Invitrogen, Cat no: PHC0043), and this procedure was then repeated at day 6. At day 7, cultured dendritic cells (5 000-10 000 per well) were added to ELISPOT (Millipore multiscreen HTS) plates coated with 0.5 μg/well anti-human γ Interferon together with thawed autologous non-adherent cells (200 000 per well), antigen samples (1-8 ug/ml final concentration for peptide antigens; 5 ug/ml final concentration for Concanavalin A (Sigma, Cat no: C7275) or PHA (Sigma, Cat no: L2769)) & anti-Anergy antibodies (0.03-0.05 ug/ml final concentration for both anti-PD-1 (eBioscience, cat no: 16-9989-82) & anti-PD-L1 (eBioscience, cat no: 16-5983-82)). Plates were incubated overnight and spots were developed according to manufacturer. Spots were read on ELISPOT reader (CTL-ImmunoSpot® S5 UV Analyzer).

DC-cells = test: Cell penetration assay: staining for biotinylated peptides, dendritic cells gated as CD11c+; assay type: cell-based, human; conditions: low concentration of peptides (208 uM)
Outline: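 Human PBMCs from one donor incubated 2 h at 37 °C with N- or C-terminally biotinylated peptides (5, 2.5, 1.25 mM; concentrations as added), then trypsinized, fixed/permeabilized and stained with streptavidin-APC and anti-CD11c. Flow cytometry GeoMean of peptide fluorescence in total cells and CD11c+ dendritic cells.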

With RRGYIPLVGAPLGBRVARALAHGVRV [51b] the “IFN-g ELISPOT (T-cell spots)” value ([1]; Patient A (HCV patient)) was 45 and 40, the “IFN-g ELISPOT (T-cell spots)” value ([1]; Patient B (HCV patient)) was 50 and 85 and the “IFN-g ELISPOT (T-cell spots)” value ([1]; Patient C (HCV patient)) was 45 and 75. For the same sequence, the “IFN-g ELISPOT (T-cell spots)” value ([1]; Patient D (HCV patient)) was 9 and 13, the “Results on DC-cells (geomean peptide-fluorescence)” value (DC-cells; BC 16) was 7000 and the “Results on DC-cells (geomean peptide-fluorescence)” value (DC-cells; BC43) was 6082.

Source: patent US9550811B2, “Peptide scaffold design” (BIONOR IMMUNO AS, priority 2010, dated 2017)
